Reference: the supplement of paper PMC10307832

Key:
Experiment in all cases: relative viability (nuclei count vs DMSO), 5 days (fraction); higher = more cells survive
AZD1208 + Luminespib = compound: N[C@@H]1CCCN(c2c(/C=C3\SC(=O)NC3=O)cccc2-c2ccccc2)C1 [AZD1208] + CCNC(=O)c1noc(-c2cc(C(C)C)c(O)cc2O)c1-c1ccc(CN2CCOCC2)cc1 [Luminespib] (partner 0.01 µM)
Procedure, shortened: (§1)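 A single step with final 0.05% Triton X-100, 1% formaldehyde and 1 ug/ml Hoechst fixed the cells and stained nuclei 5 days after treatment. Lung cancer cell lines in 1536-well plates had been treated by pin tool the day after seeding with one drug alone or a fixed anchor-drug dose plus five library-drug doses (not always all listed) in √10 steps, and nuclei were counted on 4× images. Relative viability is the ratio of nuclei in treated wells to nuclei in vehicle wells, taken as the median of duplicate plates.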

AZD1208 + Dasatinib = compound: N[C@@H]1CCCN(c2c(/C=C3\SC(=O)NC3=O)cccc2-c2ccccc2)C1 [AZD1208] + Cc1nc(Nc2ncc(C(=O)Nc3c(C)cccc3Cl)s2)cc(N2CCN(CCO)CC2)n1 [Dasatinib] (partner 0.075 µM)
Procedure, shortened: as §1

AZD1208 + Navitoclax = compound: N[C@@H]1CCCN(c2c(/C=C3\SC(=O)NC3=O)cccc2-c2ccccc2)C1 [AZD1208] + CC1(C)CCC(c2ccc(Cl)cc2)=C(CN2CCN(c3ccc(C(=O)NS(=O)(=O)c4ccc(N[C@H](CCN5CCOCC5)CSc5ccccc5)c(S(=O)(=O)C(F)(F)F)c4)cc3)CC2)C1 [Navitoclax] (partner 0.5 µM)
Procedure, shortened: as §1

AZD1208 + AZD7762 = compound: N[C@@H]1CCCN(c2c(/C=C3\SC(=O)NC3=O)cccc2-c2ccccc2)C1 [AZD1208] + NC(=O)Nc1cc(-c2cccc(F)c2)sc1C(=O)N[C@H]1CCCNC1 [AZD7762] (partner 0.2 µM)
Procedure, shortened: as §1

Row | Cell Line | relative viability (AZD1208 + Luminespib; first compound 0.08 µM) | relative viability (AZD1208 + Luminespib; first compound 0.253 µM) | relative viability (AZD1208 + Luminespib; first compound 0.8 µM) | relative viability (AZD1208 + Luminespib; first compound 2.53 µM) | relative viability (AZD1208 + Luminespib; first compound 8 µM) | relative viability (AZD1208 + Dasatinib; first compound 0.08 µM) | relative viability (AZD1208 + Dasatinib; first compound 0.253 µM) | relative viability (AZD1208 + Dasatinib; first compound 0.8 µM) | relative viability (AZD1208 + Dasatinib; first compound 2.53 µM) | relative viability (AZD1208 + Dasatinib; first compound 8 µM) | relative viability (AZD1208 + Navitoclax; first compound 0.08 µM) | relative viability (AZD1208 + Navitoclax; first compound 0.253 µM) | relative viability (AZD1208 + Navitoclax; first compound 0.8 µM) | relative viability (AZD1208 + Navitoclax; first compound 2.53 µM) | relative viability (AZD1208 + Navitoclax; first compound 8 µM) | relative viability (AZD1208 + AZD7762; first compound 0.08 µM) | relative viability (AZD1208 + AZD7762; first compound 0.253 µM) | relative viability (AZD1208 + AZD7762; first compound 0.8 µM) | relative viability (AZD1208 + AZD7762; first compound 2.53 µM) | relative viability (AZD1208 + AZD7762; first compound 8 µM)
1 | 201T | 1.07 | 1.02 | 0.961 | 1.12 | 0.98 | 0.579 | 0.557 | 0.522 | 0.504 | 0.51 | 1.24 | 1.23 | 1.25 | 1.24 | 1.31 | 0.669 | 0.654 | 0.565 | 0.693 | 0.511
2 | A549 | – | – | – | – | – | – | – | – | – | – | 1.24 | 1.16 | 1.12 | 1.18 | 1.1 | – | – | – | – | –
3 | A-427 | 0.788 | 1 | 0.829 | 0.762 | 0.712 | 0.553 | 0.644 | 0.531 | 0.659 | 0.431 | 0.936 | 0.95 | 0.892 | 0.876 | 0.863 | 0.7 | 0.789 | 0.665 | 0.653 | 0.689
4 | ABC-1 | 0.564 | 0.632 | 0.415 | 0.383 | 0.632 | 0.667 | 0.509 | 0.522 | 0.69 | 0.563 | – | – | – | – | – | 0.905 | 0.728 | 0.785 | 0.884 | 1.35
5 | BEN | 0.254 | 0.271 | 0.285 | 0.244 | 0.303 | 0.334 | 0.243 | 0.285 | 0.299 | 0.314 | 0.0677 | 0.0668 | 0.0589 | 0.0576 | 0.125 | 0.749 | 0.578 | 0.562 | 0.503 | 0.478
6 | CAL-12T | 0.363 | 0.527 | 0.185 | 0.434 | 0.258 | 0.316 | 0.393 | 0.329 | 0.48 | 0.464 | 1.28 | 1.39 | 1.08 | 1.28 | 0.956 | 0.621 | 0.624 | 0.621 | 0.596 | 0.905
7 | COR-L23 | 0.585 | 0.749 | 0.529 | 0.721 | 0.508 | 0.471 | 0.508 | 0.479 | 0.452 | 0.523 | 0.948 | 1.07 | 0.931 | 1.05 | 0.816 | – | – | – | – | –
8 | COR-L 105 | 0.728 | 0.781 | 0.826 | – | 0.855 | 0.34 | 0.34 | 0.308 | – | 0.356 | 0.679 | 0.745 | 0.555 | 1.13 | 0.682 | – | – | – | – | –
9 | Calu-6 | – | – | – | – | – | – | – | – | – | – | 0.737 | 0.916 | 0.906 | 0.833 | 0.822 | – | – | – | – | –
10 | ChaGo-K-1 | 0.676 | 0.655 | 0.596 | 0.528 | 0.392 | 0.657 | 0.624 | 0.518 | 0.539 | 0.514 | 1.16 | 1.05 | 1.09 | 0.834 | 0.785 | 0.849 | 0.931 | 0.813 | 0.952 | 0.776
11 | EBC-1 | – | – | – | – | – | – | – | – | – | – | 0.317 | 0.326 | 0.297 | 0.334 | 0.298 | – | – | – | – | –
12 | EKVX | 0.981 | 0.845 | 0.888 | 0.804 | 0.924 | 0.637 | 0.245 | 0.51 | 0.498 | 0.48 | 0.931 | 0.995 | 0.754 | 0.933 | 0.944 | 0.76 | 0.801 | 0.674 | 0.719 | 0.606
13 | EMC-BAC-2 | 1.12 | 1.2 | 1.13 | 1.11 | 0.812 | 0.301 | 0.319 | 0.321 | 0.32 | 0.264 | 1.17 | 1.39 | 1.14 | 1.17 | 1.07 | 1.21 | 1.13 | 0.866 | 1.03 | 0.875
14 | EPLC-272H | 0.276 | 0.557 | 0.288 | 0.219 | 0.215 | 0.3 | 0.363 | 0.286 | 0.305 | 0.252 | 1.08 | 1.24 | 1.08 | 1.04 | 0.897 | 0.276 | 0.339 | 0.205 | 0.189 | 0.271
15 | H3255 | 0.872 | 0.982 | 0.698 | 0.901 | 0.842 | 0.438 | 0.413 | 0.362 | 0.385 | 0.43 | 0.511 | 0.546 | 0.455 | 0.462 | 0.472 | 1.01 | 0.992 | 0.898 | 0.912 | 0.845
16 | HARA | 0.558 | 1.1 | 0.0617 | 0.81 | 0.777 | 0.284 | 0.273 | 0.236 | 0.261 | 0.284 | 1.13 | 1.16 | 1.2 | 1.03 | 1.15 | 0.36 | 0.468 | 0.373 | 0.557 | 0.44
17 | HCC-15 | 0.359 | 0.235 | 0.319 | 0.431 | 0.192 | 0.57 | 0.487 | 0.489 | 0.492 | 0.368 | 0.632 | 0.725 | 0.55 | 0.642 | 0.612 | 1.19 | 1.26 | 1.03 | 1.43 | 1.19
18 | HCC-44 | 0.996 | 1.1 | 0.963 | 1.04 | 1.04 | – | – | – | – | – | 0.91 | 1.07 | 0.94 | 1.04 | 0.899 | 1.01 | 1.05 | 1.03 | 1.07 | 1.08
19 | HCC-78 | – | – | – | – | – | 0.421 | 0.439 | 0.328 | 0.35 | 0.34 | 0.951 | 0.752 | 0.672 | 0.685 | 0.709 | 0.737 | 0.758 | 0.643 | 0.739 | 0.793
